What all share (assay type): cell-based, human
Assay [1] concerns MCF-7 cells. Put plainly: Phosphatidylserine translocation (Annexin V-FITC/PI), MCF-7. The text has this:
(§1) One of the early indicators of apoptosis is the exposure of phosphatidylserine residues on the cell’s surface. Annexin V has a high affinity to phosphatidylserine and, as a conjugate to fluorescein isothiocyante (FITC), is widely used for detection of early apoptotic cells using flow cytometry. Detection of late-apoptotic or necrotic cells is achieved by using propidium iodide (PI) stain. Based on the obtained fluorescence, four subpopulations were found: PI-low/FITC-low (live cells), PI-high/FITC-low (necrotic cells), PI-low/FITC-high (early apoptotic cells), and PI-high/FITC-high (late apoptotic cells).
(§2) Analysis was performed using FITC-conjugated annexin-V (Annexin V-FITC Apoptosis Kit I, BD Biosciences, San Jose, CA, USA) according to the manufacturer’s instructions (BD Biosciences) as described previously. HeLa, MCF-7, and HCT-116, after seeding to 24-well plates (5 × 10^4/per well) and 24 h incubation, were treated for 72 h with 24 or 31 (10/25 µM or 25 µM concentration respectively). Following treatment, cells were washed in PBS, centrifuged, and then resuspended in a binding buffer. Afterward, the cells were incubated for 15 min at 37 °C with FITC-conjugated annexin-V and propidium iodide. The samples were then analyzed using a LSR II flow cytometer (BD Biosciences) using 530 ± 25 nm (Annexin V-FITC) and 575 ± 26 nm (PI).
(§3) The subpopulations were identified according to their fluorescence: PI-low/FITC-low (live cells), PI-high/FITC-low (necrotic cells), PI-low/FITC-high (early apoptotic cells), and PI-high/FITC-high (late apoptotic cells).

Assay [2] relates to HeLa cells. In words: Mitochondrial membrane potential (JC-1, flow cytometry), HeLa. As to conditions: 72 h, 24 at 10 or 25 μM, 31 at 25 μM. The text has this:
A decrease in mitochondrial potential is one of the earliest hallmarks of apoptosis. A common method for indication of cells with high and low Δψm is flow cytometry combined with specific fluorescent probes, such as JC-1 (5,5′,6,6′-tetrachloro-1,1′,3,3′-tetraethylbenzimidazolylcarbocyanine iodide). JC-1 accumulates in mitochondria and forms complexes (J aggregates) with red fluorescence in healthy cells with a normal ΔΨm, whereas in apoptotic cells with a low ΔΨm exists as a monomer with green fluorescence.
Analyzed cells were seeded into wells of a 24-well plate at a density of 5 × 10^4 cells in 1000 µL, incubated overnight, and then the medium was exchanged for dilutions of reagents 24 and 31. Before the end of 72 h of incubation, MitoProbe JC-1 (25 µM) was added into each plate well. Carbonyl cyanide m-chlorophenylhydrazone CCCP (200 nM) as the mitochondrial oxidative phosphorylation uncoupler was added into the positive control 15 min before JC-1 was added. After 30 min of JC-1 staining, cells were washed with PBS and then trypsinized (Corning® 25-053CI). Cells suspended in PBS were analyzed by flow cytometry at λ excitation (ex) = 488 nm and λ emission (em) = 525/570 nm (LSR II BD Biosciences, San Jose, CA, USA).
Background: In flow cytometry, cells or beads pass a laser one at a time.

For assay [3], the system named is HeLa cells. Put plainly: Cell cycle distribution by flow cytometry, HeLa. The note with it: 72 h; for cells in sub-G1 phase: control 5.08%. As to the method:
The cell cycle distribution was measured by flow cytometry analysis after incubation of MCF-7, HeLa, and HCT-116 with compounds 24 and 31 for 72 h.

The subject of a further assay is HCT-116 cells. In words: Phosphatidylserine translocation (Annexin V-FITC/PI), HCT-116.
From the text: as §1, §2, §3

Assay [4] has as its system HeLa cells. Put plainly: Phosphatidylserine translocation (Annexin V-FITC/PI), HeLa. The note with it: 72 h.
From the text: as §1, §2, §3

Assay [5] deals with MCF-7 cells. In words: Cell morphology by light microscopy, MCF-7. The note with it: MCF-7, 10 and 25 μM, 72 h. As to the method: The evaluation of changes in cell morphology has been performed after incubation with compounds 24 and 31 for 72 h using light microscopy.
The HeLa, MCF-7, and HCT-116 cells were seeded on 24-well plates (5 × 10^4/per well) in 1 mL of medium for 24 h. After that time, cells were treated with 24 and 31 for next 72 h. Cells were treated with 10 µM, 25 µM of 24, or 25 µM of 31. As a control, non-treated cells were used. Morphology of cells was observed after 72 h using light microscope Olympus IX83.

A further assay deals with HCT-116 (colon cancer). Put plainly: MTT cell viability assay, HCT-116. As to the method:
(§4) All chemicals, if not stated otherwise, were obtained from Sigma-Aldrich (St. Louis, MO, USA). The MCF-7 cell line was purchased from Cell Lines Services (Eppelheim, Germany), the HeLa and HCT-116 cell lines were obtained from the Department of Microbiology, Tumor and Cell Biology, Karolinska Institute (Stockholm, Sweden). Cells were cultured in Dulbecco’s modified Eagle’s medium (DMEM) supplemented with 10% fetal bovine serum, 2 mM glutamine, 100 units/mL penicillin, and 100 μg/mL streptomycin. Cultures were maintained in a humidified atmosphere with 5% CO2 at 37 °C in an incubator (HeraCell, Heraeus, Langenselbold, Germany).
(§5) Cell viability was determined using the MTT (3-(4,5-dimethylthiazol-2-yl)-2,5-diphenyl-tetrazoliumbromide) assay. Stock solutions of the studied compounds were prepared in 100% DMSO. […] Cells were seeded in 96-well plates at a density of 5 × 10^3 cells/well and treated for 72 h with the examined compounds in the concentration range 1–100 μM (1, 10, 25, 50, and 100 μM). Following treatment, MTT (0.5 mg/mL) was added to the medium and cells were further incubated for 2 h at 37 °C. Cells were lysed with DMSO and the absorbance of the formazan solution was measured at 550 nm with a plate reader (1420 multilabel counter, Victor, Jügesheim, Germany). […] The experiment was performed in triplicate. Values are expressed as the mean ± SD of at least three independent experiments.
A general note: Tetrazolium assays rely on reduction of a dye to a coloured formazan, in cell work by metabolically active cells.

For another assay, the system named is HeLa (cervical cancer). Put plainly: MTT cell viability assay, HeLa. As to the method:
as §4, §5

`Cc1cc(S(=O)(=O)NC(N)=NN=C(C=Cc2ccccc2O)c2ccccc2)c(SCc2ccccc2Cl)cc1Cl` [Compound 24, 3-{4-chloro-2-[(2-chlorophenyl)methylthio]-5-methylbenzenesulfonyl}-2-[3-(2-hydroxyphenyl)-1-phenylprop-2-enylideneamino]guanidine]: the “induction of apoptosis (Annexin V-FITC/PI)” value with MCF-7 cells [1] (MCF-7, 10 μM, 72 h) is on record as “Induction of apoptosis”; in the assay on HCT-116 cells (HCT-116, 10 μM, 72 h), “Induction of apoptosis”. Further, the “population of apoptotic cells (Annexin V-FITC/PI)” value is “increased population of apoptotic cells” in the assay with MCF-7 cells [1] (MCF-7, 72 h, 24 at 10 or 25 μM, 31 at 25 μM); “increased population of apoptotic cells” in the assay on HCT-116 cells (HCT-116, 72 h, 24 at 10 or 25 μM, 31 at 25 μM); “increased population of apoptotic cells” in the assay on HeLa cells [4] (24 at 10 or 25 μM, 31 at 25 μM). The “change of mitochondrial membrane potential (ΔΨm)” value in the assay on HeLa cells [2] is recorded as “remarkable decrease in ΔΨm”. The “cells in sub-G1 phase” value with HeLa cells [3] (10 μM) is on record as 7.45%; in the assay on HeLa cells [3] (25 μM) it was 18.07%. Also, the “effect on cell cycle distribution” value with HeLa cells [3] (24 at 10 and 25 μM, 31 at 25 μM) is “significant increase in the cell distribution in the sub-G1 phase”. Besides, the “level of late apoptotic cells (Annexin V-FITC/PI)” value in the assay with HeLa cells [4] (25 μM) was “significantly increased level of late apoptotic cells”. Further, the “changes in cell morphology” value in the assay with MCF-7 cells [5] is recorded as “apoptotic-like changes, such as shrinkage of the cells or detachment from the surface”. In addition, in the assay with HCT-116 (colon cancer) (HCT-116 versus HaCaT, from IC50 values), the “Selectivity Index HCT-116/HaCaT” value stood at 3.7. Moreover, the IC50 – broadly, the concentration that inhibits the measured activity by half – in the assay on HCT-116 (colon cancer) (Homo sapiens, HCT-116, MTT, 72 h) is 9 ± 0.5 µM; in the assay on HeLa (cervical cancer) (Homo sapiens, HeLa, MTT, 72 h), 17 ± 0.5 µM. In addition, the “Selectivity Index HeLa/HaCaT” value with HeLa (cervical cancer) (HeLa versus HaCaT, from IC50 values) stood at 1.9.
